Key:
Experiment in all cases: relative viability (nuclei count vs DMSO), 5 days (fraction); higher = more cells survive
[1] = compound: Cc1ccc2nc(NCCN)c3ncc(C)n3c2c1 + O=C(c1cc(Cc2n[nH]c(=O)c3ccccc23)ccc1F)N1CCN(C(=O)C2CC2)CC1 [Olaparib] (partner 8 µM)
Outline: (§1)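 Medians of duplicate plates are given as relative viability. That measure is the nuclei count in treated wells divided by the count in vehicle wells. Counts were taken on 4× images of lung cancer cell lines in 1536-well plates, 5 days after pin-tool dosing the day after seeding with one drug alone or a fixed anchor-drug dose plus five library-drug doses (not always all listed) in √10 steps.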

[2] = compound: Cc1ccc2nc(NCCN)c3ncc(C)n3c2c1 + Nc1nc2[nH]cc(CCc3ccc(C(=O)N[C@@H](CCC(=O)O)C(=O)O)cc3)c2c(=O)[nH]1 [Pemetrexed] (partner 0.2 µM)
Outline: as §1

Salubrinal + Vorinostat = compound: O=C(/C=C/c1ccccc1)NC(NC(=S)Nc1cccc2cccnc12)C(Cl)(Cl)Cl [Salubrinal] + O=C(CCCCCCC(=O)Nc1ccccc1)NO [Vorinostat] (partner 1 µM)
Outline: as §1

Salubrinal + Pictilisib = compound: O=C(/C=C/c1ccccc1)NC(NC(=S)Nc1cccc2cccnc12)C(Cl)(Cl)Cl [Salubrinal] + CS(=O)(=O)N1CCN(Cc2cc3nc(-c4cccc5[nH]ncc45)nc(N4CCOCC4)c3s2)CC1 [Pictilisib] (partner 1 µM)
Outline: as §1

Cell Line | relative viability ([1]; first compound 0.04 µM) | relative viability ([1]; first compound 0.1265 µM) | relative viability ([1]; first compound 0.4 µM) | relative viability ([1]; first compound 1.265 µM) | relative viability ([1]; first compound 4 µM) | relative viability ([2]; first compound 0.04 µM) | relative viability ([2]; first compound 0.1265 µM) | relative viability ([2]; first compound 0.4 µM) | relative viability ([2]; first compound 1.265 µM) | relative viability ([2]; first compound 4 µM) | relative viability (Salubrinal + Vorinostat; first compound 0.08 µM) | relative viability (Salubrinal + Vorinostat; first compound 0.253 µM) | relative viability (Salubrinal + Vorinostat; first compound 0.8 µM) | relative viability (Salubrinal + Vorinostat; first compound 2.53 µM) | relative viability (Salubrinal + Vorinostat; first compound 8 µM) | relative viability (Salubrinal + Pictilisib; first compound 0.08 µM) | relative viability (Salubrinal + Pictilisib; first compound 0.253 µM) | relative viability (Salubrinal + Pictilisib; first compound 0.8 µM) | relative viability (Salubrinal + Pictilisib; first compound 2.53 µM) | relative viability (Salubrinal + Pictilisib; first compound 8 µM)
LOU-NH91 | 0.921 | 0.92 | 0.877 | 0.868 | 0.865 | 0.411 | 0.344 | 0.361 | 0.465 | 0.495 | 0.933 | 0.925 | 1.08 | 0.903 | 0.841 | 0.541 | 0.502 | 0.576 | 0.479 | 0.53
LU99A | 0.322 | 0.319 | 0.288 | 0.29 | 0.258 | 0.165 | 0.209 | 0.208 | 0.188 | 0.209 | 0.621 | 0.481 | 0.578 | 0.546 | 0.513 | 0.29 | 0.35 | 0.356 | 0.318 | 0.362
NCI-H522 | 0.62 | 0.708 | 0.585 | 0.648 | 0.635 | 1.02 | 1.24 | 0.766 | 1.28 | 0.95 | 1.03 | 0.944 | 0.972 | 0.889 | 0.844 |  |  |  |  | 
NCI-H727 | 0.561 |  | 0.731 | 0.785 | 0.709 |  |  |  |  |  | 1.39 | 0.948 | 1.06 | 1.1 | 1.24 | 0.318 | 0.312 | 0.433 | 0.197 | 0.359
NCI-H1299 | 0.973 | 0.965 | 0.985 | 0.891 | 0.767 |  |  |  |  |  |  |  |  |  |  | 0.911 | 0.704 | 0.874 | 0.698 | 0.66
NCI-H1563 |  |  |  |  |  | 0.861 | 0.78 | 0.877 | 0.718 | 0.705 |  |  |  |  |  | 0.665 | 0.586 | 0.639 | 0.623 | 0.591
NCI-H1648 | 1.08 | 0.846 | 0.789 | 0.843 | 0.666 | 0.696 | 0.85 | 0.723 | 0.627 | 0.7 | 0.431 | 0.419 | 0.649 | 0.345 | 0.242 |  |  |  |  | 
NCI-H1703 | 0.393 | 0.362 | 0.619 | 0.47 | 0.437 |  |  |  |  |  |  |  |  |  |  | 0.216 | 0.246 | 0.238 | 0.259 | 0.264
NCI-H1792 | 0.499 | 0.279 |  | 0.458 | 0.295 | 1.33 | 0.774 |  | 0.801 | 0.618 |  |  |  |  |  | 0.324 |  | 0.246 | 0.287 | 0.243
NCI-H2342 | 0.593 | 0.439 | 0.453 | 0.411 | 0.503 | 0.871 | 0.817 | 0.751 | 0.827 | 0.713 | 0.666 | 0.631 | 0.715 | 0.668 | 0.768 |  |  |  |  | 
SW 900 |  | 0.865 | 0.884 | 0.874 | 0.827 |  | 0.49 | 0.444 | 0.464 | 0.489 | 0.735 | 0.379 | 0.731 | 0.505 | 0.804 |  |  |  |  | 

Reference: the supplement of paper PMC10307832
